Results reported in the CheMixHub viscosity set.

Assay: xn = mol fraction of the nth substance listed

CCCCCCCO + COC(=O)OC
Settings | viscosity [mPa·s]
293.15 K, 101 kPa, x2 = 0.04189 | 6.005
293.15 K, 101 kPa, x2 = 0.08197 | 5.163
293.15 K, 101 kPa, x2 = 0.1998 | 3.52
293.15 K, 101 kPa, x2 = 0.2986 | 2.615
293.15 K, 101 kPa, x2 = 0.4163 | 1.928
293.15 K, 101 kPa, x2 = 0.482 | 1.64
293.15 K, 101 kPa, x2 = 0.6031 | 1.231
293.15 K, 101 kPa, x2 = 0.7204 | 0.956
293.15 K, 101 kPa, x2 = 0.7985 | 0.818
293.15 K, 101 kPa, x2 = 0.9076 | 0.691
293.15 K, 101 kPa, x2 = 0.9573 | 0.661
303.15 K, 100 kPa, x2 = 0.0999 | 3.588
303.15 K, 100 kPa, x2 = 0.2 | 2.668
303.15 K, 100 kPa, x2 = 0.3001 | 2.033
303.15 K, 100 kPa, x2 = 0.4 | 1.59
303.15 K, 100 kPa, x2 = 0.5001 | 1.275
303.15 K, 100 kPa, x2 = 0.6 | 1.061
303.15 K, 100 kPa, x2 = 0.7 | 0.869
303.15 K, 100 kPa, x2 = 0.8 | 0.707
303.15 K, 100 kPa, x2 = 0.8999 | 0.609
303.15 K, 101 kPa, x2 = 0.06371 | 4.012
303.15 K, 101 kPa, x2 = 0.1014 | 3.549
303.15 K, 101 kPa, x2 = 0.2001 | 2.661
303.15 K, 101 kPa, x2 = 0.2928 | 2.07
303.15 K, 101 kPa, x2 = 0.4019 | 1.583
303.15 K, 101 kPa, x2 = 0.4949 | 1.282
303.15 K, 101 kPa, x2 = 0.5788 | 1.071
303.15 K, 101 kPa, x2 = 0.715 | 0.817
303.15 K, 101 kPa, x2 = 0.7902 | 0.719
303.15 K, 101 kPa, x2 = 0.9063 | 0.607
303.15 K, 101 kPa, x2 = 0.9354 | 0.584
308.15 K, 100 kPa, x2 = 0.0999 | 3.119
308.15 K, 100 kPa, x2 = 0.2 | 2.351
308.15 K, 100 kPa, x2 = 0.3001 | 1.809
308.15 K, 100 kPa, x2 = 0.4 | 1.434
308.15 K, 100 kPa, x2 = 0.5001 | 1.149
308.15 K, 100 kPa, x2 = 0.6 | 0.964
308.15 K, 100 kPa, x2 = 0.7 | 0.789
308.15 K, 100 kPa, x2 = 0.8 | 0.66
308.15 K, 100 kPa, x2 = 0.8999 | 0.57
313.15 K, 100 kPa, x2 = 0.0999 | 2.725
313.15 K, 100 kPa, x2 = 0.2 | 2.077
313.15 K, 100 kPa, x2 = 0.3001 | 1.616
313.15 K, 100 kPa, x2 = 0.4 | 1.288
313.15 K, 100 kPa, x2 = 0.5001 | 1.049
313.15 K, 100 kPa, x2 = 0.6 | 0.875
313.15 K, 100 kPa, x2 = 0.7 | 0.73
313.15 K, 100 kPa, x2 = 0.8 | 0.612
313.15 K, 100 kPa, x2 = 0.8999 | 0.536
313.15 K, 101 kPa, x2 = 0.04009 | 3.253
313.15 K, 101 kPa, x2 = 0.09588 | 2.743
313.15 K, 101 kPa, x2 = 0.2155 | 1.974
313.15 K, 101 kPa, x2 = 0.3104 | 1.571
313.15 K, 101 kPa, x2 = 0.4052 | 1.267
313.15 K, 101 kPa, x2 = 0.4938 | 1.054
313.15 K, 101 kPa, x2 = 0.5968 | 0.859
313.15 K, 101 kPa, x2 = 0.7024 | 0.709
313.15 K, 101 kPa, x2 = 0.7953 | 0.613
313.15 K, 101 kPa, x2 = 0.9018 | 0.535
313.15 K, 101 kPa, x2 = 0.9477 | 0.509
318.15 K, 100 kPa, x2 = 0.0999 | 2.392
318.15 K, 100 kPa, x2 = 0.2 | 1.847
318.15 K, 100 kPa, x2 = 0.3001 | 1.454
318.15 K, 100 kPa, x2 = 0.4 | 1.171
318.15 K, 100 kPa, x2 = 0.5001 | 0.961
318.15 K, 100 kPa, x2 = 0.6 | 0.809
318.15 K, 100 kPa, x2 = 0.7 | 0.683
318.15 K, 100 kPa, x2 = 0.8 | 0.573
318.15 K, 100 kPa, x2 = 0.8999 | 0.504
323.15 K, 100 kPa, x2 = 0.0999 | 2.113
323.15 K, 100 kPa, x2 = 0.2 | 1.651
323.15 K, 100 kPa, x2 = 0.3001 | 1.31
323.15 K, 100 kPa, x2 = 0.4 | 1.068
323.15 K, 100 kPa, x2 = 0.5001 | 0.885
323.15 K, 100 kPa, x2 = 0.6 | 0.738
323.15 K, 100 kPa, x2 = 0.7 | 0.638
323.15 K, 100 kPa, x2 = 0.8 | 0.539
323.15 K, 100 kPa, x2 = 0.8999 | 0.476

CS(C)=O + COC(=O)OC
308.15 K, 101 kPa
Settings | viscosity [mPa·s]
x1 = 0.0596 | 0.547
x1 = 0.1027 | 0.57
x1 = 0.1913 | 0.621
x1 = 0.2791 | 0.677
x1 = 0.371 | 0.743
x1 = 0.4598 | 0.814
x1 = 0.5007 | 0.853
x1 = 0.5479 | 0.897
x1 = 0.626 | 0.983
x1 = 0.7427 | 1.137
x1 = 0.8572 | 1.327
x1 = 0.9283 | 1.47

CCCCC + COC(C)=O
298.15 K, 101 kPa
Settings | viscosity [mPa·s]
x1 = 0.05 | 0.342
x1 = 0.1 | 0.324
x1 = 0.1087 | 0.322
x1 = 0.15 | 0.309
x1 = 0.2 | 0.296
x1 = 0.2088 | 0.295
x1 = 0.25 | 0.285
x1 = 0.3 | 0.275
x1 = 0.3035 | 0.273
x1 = 0.35 | 0.266
x1 = 0.4 | 0.257
x1 = 0.401 | 0.258
x1 = 0.45 | 0.25
x1 = 0.5 | 0.243
x1 = 0.5022 | 0.243
x1 = 0.55 | 0.237
x1 = 0.5972 | 0.232
x1 = 0.6 | 0.232
x1 = 0.65 | 0.227
x1 = 0.7 | 0.223
x1 = 0.7028 | 0.223
x1 = 0.75 | 0.22
x1 = 0.8 | 0.218
x1 = 0.8002 | 0.219
x1 = 0.85 | 0.217
x1 = 0.9 | 0.216
x1 = 0.9009 | 0.218
x1 = 0.95 | 0.215

OC1CCCCC1 + COCCO
303.15 K, 101.3 kPa
Settings | viscosity [mPa·s]
x2 = 0.135 | 31.36
x2 = 0.232 | 23.64
x2 = 0.3144 | 17.36
x2 = 0.4389 | 9.281
x2 = 0.4908 | 6.609
x2 = 0.5515 | 4.075
x2 = 0.9188 | 0.811

CCOC(=O)C(C)O (stereo unspecified) + COCCOCCOCCOCCOC
101 kPa
Settings | viscosity [mPa·s]
303.15 K, x1 = 0.3998 | 2.815
308.15 K, x1 = 0.6001 | 2.385
323.15 K, x1 = 0.8001 | 1.605

CC(=O)O.NCCO + CS(C)=O
298.15 K, 101.3 kPa
Settings | viscosity [mPa·s]
x2 = 0.069 | 1634
x2 = 0.143 | 1064
x2 = 0.223 | 420
x2 = 0.311 | 375.1
x2 = 0.404 | 139.5
x2 = 0.502 | 66.42
x2 = 0.612 | 29.5
x2 = 0.732 | 12.73
x2 = 0.852 | 6.71

NS(=O)(=O)O + CS(C)=O
298 K, 101.33 kPa
Settings | viscosity [mPa·s]
x1 = 0.02135 | 2.438
x1 = 0.04282 | 3.041
x1 = 0.06425 | 3.822
x1 = 0.08365 | 4.853
